# Source: patent US12611434B2, “Bifidobacterium brevis and its application in preventing or alleviating psoriasis thereof” (Jiangnan University, priority 2020, dated 2026)
# Columns and labels:
# Type in all cases: in vivo, BALB/c female mice
# IL-23 = IL-23 content in skin of psoriasis mice by ELISA kit; conditions: compared with model group; intragastric daily (bacteria 0.2 mL of 1×10^9 CFU/mL; methotrexate 1 mg/kg/day); back skin, 1st day of week 4
# Source text: (§1) 6 to 8-week-old SPF-class BALB/c female mice were divided into 4 groups: a normal group, a model group, a positive reference group (hereinafter referred to as PRG) and experimental groups, where the experimental groups included a CCFM1078 group intragastrically administrated with the B. breve CCFM1078 and a B. breve 1 group intragastrically administrated with the B. breve 1, with 6 animals in each group. All mice were raised in the Experimental Animal Center of Jiangnan University and fed with ordinary feed, at a constant temperature of 21 to 26° C. and at the humidity of 40 to 70%, with noise of less than or equal to 60 dB, and animal illumination of 15 to 20 LX (all animal experiment procedures were reviewed and approved by the Animal welfare and Ethics Management Committee of Jiangnan University).
# (§2) The experimental cycle was a total of 3 weeks, and modeling was performed in week 3. The back of the mice was depilated the day before modeling, in an area of about 2.5 cm×2.5 cm. […] The mice were sacrificed on the 1st day of week 4, a part of the skin of the back depilated region of mice was taken and stored at −80° C., and the content of IL-23 in the skin was detected by an ELISA kit.
# IL-22 = IL-22 content in skin of psoriasis mice by ELISA kit; conditions: compared with model group; intragastric daily (bacteria 0.2 mL of 1×10^9 CFU/mL; methotrexate 1 mg/kg/day); back skin, 1st day of week 4
# Source text: as §1
# as §2, with “IL-22” for “IL-23”
# IL-17 = IL-17 content in skin of psoriasis mice by ELISA kit; conditions: compared with model group; intragastric daily (bacteria 0.2 mL of 1×10^9 CFU/mL); back skin, 1st day of week 4
# Source text: as §1
# as §2, with “IL-17” for “IL-23”
smiles,measurement,setting,value
CN(Cc1cnc2nc(N)nc(N)c2n1)c1ccc(C(=O)N[C@@H](CCC(=O)O)C(=O)O)cc1 [methotrexate],decrease of IL-23 content in the skin,IL-23,43.8%
same,decrease of IL-22 content in the skin,IL-22,41.8%
same,decrease of IL-17 content in the skin,IL-17,24.6%
